Reference: patent US9545387B2, “Composition and kit comprising piperazine derivatives and metformin, and use thereof in the treatment of diabetes” (METABOLYS, priority 2012, dated 2017)

Columns and labels:
[1] = oral glucose tolerance test (OGTT) in normal Swiss mice fasting for 17 hours, additive effect with metformin; format: in vivo; settings: metformin 300 mg/kg per os; for Glycaemia, Time −60 mn / Glycaemia, Time 30 mn / Glycaemia, Time 60 mn / Glycaemia, Time 120 mn / Glycaemia, Time 0 mn / Glycaemia, Time 90 mn: OGTT; for Glycaemia, Time −60 mn: given 1 h before glucose load, time −60 min; for Glycaemia, Time 30 mn: time 30 min; for Glycaemia, Time 60 mn: time 60 min; for Glycaemia, Time 120 mn: time 120 min; for Glycaemia, Time 0 mn: time 0 min; for Glycaemia, Time 90 mn: time 90 min
[2] = as above; format: in vivo; settings: compound 1 50 mg/kg per os, metformin 300 mg/kg per os
Procedure: The anti-diabetic action of the compounds in Examples 1 and 2 were determined via oral route in normal Swiss mice fasting for 17 hours. […] The animals were housed for a minimum time of one week after delivery (ordered from Charles River France) up until the day of experimentation in an animal facility at a temperature regulated at 21-22° C. and subjected to a light cycle (from 9 h to 17 h) and dark cycle (from 19 h to 7 h). They were fed a maintenance diet: water and food were provided ? ad libitum ? . The animals were treated via oral route 1 hour before oral administration of a glucose load (oral glucose tolerance test—OGTT). Glycaemia was measured at various times before and after this glucose load. This glycaemia was measured using a glucometer (Lifescan OneTouch Ultra, Lifescan, Johnson and Johnson Company) and OneTouch Ultra glycaemia test strips. In the Tables below n represents the number of mice included in the study. • 1. […] The 2 compounds were administered successively one hour before the glucose load. All the groups were composed of 5 mice (metformin alone, compound 1 alone, metformin+compound 1, control group with the carrier alone). Blood samples were taken at 0, 30, 60, 90 and 120 minutes after the glucose load.

[3] = test system: liver cells of rats fasting for 48 h; test: metabolism of lactate and glutamine in liver cells of rats fasting for 48 h; format: cell-based, rat
Procedure: […] Enzymatic assay of the consumption of lactate and glutamine was performed, the production of their metabolites was also analysed. Finally the ATP cell concentration was determined.
Complete oxidation of a substrate was measured by the lowest CO2 value produced from one of its carbons. As a result, this carbon is found in greater quantity in non-volatile products (other than CO2) formed during the metabolism of this substrate.
Complete oxidation of lactate can therefore be determined by measuring the production of 13CO2 from 2-13C-lactate.
Complete oxidation of glutamine can be examined by measuring the production of 13CO2 from 3-13C-glutamine (Biochem. J., 2004, 378, 485-495).

[4] = glycaemia and circulating insulin before and after a glucose load in STZ-N0a rats; format: in vivo; settings: for Glycaemia, Time −60 mn / Insulin, Time −60 mn: time −60 min; for Glycaemia, Time 0 mn / Insulin, Time 0 mn: time 0 min; for Glycaemia, Time 30 mn / Insulin, Time 30 mn: time 30 min; for Glycaemia, Time 60 mn / Insulin, Time 60 mn: time 60 min; for Glycaemia, Time 90 mn / Insulin, Time 90 mn: time 90 min; for Glycaemia, Time 120 mn / Insulin, Time 120 mn: time 120 min
From the text: An increase in insulin secretion was noted solely when compound 2 caused an increases in the peripheral consumption of glucose by skeletal muscle (Tables 9 to 12 which give a mean of the results obtained). […] It is shown in Tables 11 and 12 that if there is no increase in muscle consumption of glucose, there is no increase in the level of circulating insulin.

[5] = Table 1, compound 1 50 mg/kg per os
[6] = Table 2, compound 2 50 mg/kg per os
[7] = 5 mM 2-13C-lactate + 0.5 mM compound 2, n = 4
[8] = 5 mM 3-13C-glutamine + 0.5 mM compound 2, n = 4
[9] = 5 mM glutamine + 2 mM compound 2, n = 6
[10] = 5 mM lactate + 0.5 mM compound 2, n = 3
[11] = 5 mM lactate + 2 mM compound 2, n = 6
[12] = Table 11, compound 2, title 25 mg/kg (row prints 200 mg/kg)
[13] = Table 12, compound 2, title 25 mg/kg (row prints 200 mg/kg)
[14] = Table 3, compound 3 50 mg/kg per os
[15] = Table 4, compound 4 50 mg/kg per os

For `O=C(O)CCC(=O)c1ccc(OCCN2CCN(c3ccccc3F)CC2)cc1` [Compound 1], the “Glycaemia, Time −60 mn” value [1, 5] was 5.0 ± 0.2 mM/liter, the “Glycaemia, Time 30 mn” value [1, 5] was 15.2 ± 1.9 mM/liter and the “Glycaemia, Time 60 mn” value [1, 5] was 10.6 ± 0.2 mM/liter. The “Glycaemia, Time 120 mn” value [1, 5] was 5.3 ± 0.2 mM/liter, the “Glycaemia, Time 0 mn” value ([2]; Table 1, OGTT, time 0 min) was 4.5 ± 0.3 mM/liter and the “Glycaemia, Time 90 mn” value ([2]; Table 1, OGTT, time 90 min) was 6.5 ± 0.5 mM/liter. For the same compound, the “drop of glycaemia area under curve after glucose load” value (from here on “drop of glycaemia area under curve”) ([2]; study 1) was 42.5%.

With `O=C(O)CCC(=O)c1ccc(OCCN2CCN(c3ccccn3)CC2)cc1` [Compound 2] the “Glycaemia, Time −60 mn” value [1, 6] was 4.6 ± 0.4 mM/liter, the “Glycaemia, Time 0 mn” value [1, 6] was 4.9 ± 0.2 mM/liter and the “Glycaemia, Time 30 mn” value [1, 6] was 14.5 ± 1.4 mM/liter. For the same compound, the “Glycaemia, Time 60 mn” value [1, 6] was 10.4 ± 0.5 mM/liter, the “Glycaemia, Time 90 mn” value [1, 6] was 8.3 ± 1.1 mM/liter and the “Glycaemia, Time 120 mn” value [1, 6] was 6.8 ± 0.6 mM/liter. The “drop of glycaemia area under curve” value ([1]; study 2, compound 2 50 mg/kg per os) was 40.5%, the “reduction of the consumption of lactate” value ([3]; 5 mM 2-13C-lactate + 0.5 mM compound 2) was 10% and the 13CO2 production [3, 7] was 5.99 ± 0.09 μmoles/flask. For the same compound, the ATP concentration [3, 7] was 188.4 ± 25.2 nanomoles per 6 precisely cut liver section, the Glucose production [3, 7] was 4.69 ± 0.14 μmoles/flask and the ATP concentration [3, 8] was 362.9 ± 53.3 (NS) nanomoles per 6 precisely cut liver sections. For the same compound, the Glucose production [3, 8] was 6.05 ± 0.30 μmoles/flask, the “Production of 13CO2” value [3, 8] was 1.86 ± 0.28 μmoles/flask and the ATP concentration ([3]; 5 mM glutamine + 2 mM compound 2) was 34.2 ± 7.6 nanomoles per 2 precisely cut liver sections. For the same compound, the Complete oxidation ([3]; 5 mM glutamine + 2 mM compound 2, consumption of glutamine − (2 * glucose + pyruvate + lactate + alanine + glutamate products)) was 0.59 ± 0.35* μmoles/flask, the “Consumption of substrate (—)” value [3, 9] was −2.77 ± 0.15 μmoles/flask and the Glucose production [3, 9] was 0.78 ± 0.09 μmoles/flask. The “Sum of labelling of non-volatile products from lactate metabolism, 1-13C-lactate” value [3, 10] was 1.36 ± 0.09*+ μmoles of carbon 13/flask, the “Sum of labelling of non-volatile products from lactate metabolism, 2-13C-lactate” value [3, 10] was 4.94 ± 0.15 μmoles of carbon 13/flask and the “Sum of labelling of non-volatile products from lactate metabolism, 3-13C-lactate” value [3, 10] was 4.06 ± 0.15*+ μmoles of carbon 13/flask. For the same compound, the ATP concentration ([3]; 5 mM lactate + 2 mM compound 2) was 31.8 ± 8.0 nanomoles per 2 precisely cut liver sections, the Complete oxidation ([3]; 5 mM lactate + 2 mM compound 2, consumption of lactate − (2 * glucose + pyruvate + alanine products)) was 0.64 ± 0.30* μmoles/flask and the NADH mitochondrial transport ([3]; 5 mM lactate + 2 mM compound 2, lactate consumption minus twice glucose production) was 1.06 ± 0.33 μmoles/flask. The “Consumption of substrate (—)” value [3, 11] was −2.59 ± 0.34 μmoles/flask, the Glucose production [3, 11] was 0.76 ± 0.13 μmoles/flask and the “Glycaemia AUC” value ([4]; Table 9, compound 2 200 mg/kg) was 356. For the same compound, the “Glycaemia, Time −60 mn” value ([4]; Table 9, compound 2 200 mg/kg, glucose load at 0 min) was 4.75 mmol/L, the “Glycaemia, Time 0 mn” value ([4]; Table 9, compound 2 200 mg/kg) was 8.75 mmol/L and the “Glycaemia, Time 30 mn” value ([4]; Table 9, compound 2 200 mg/kg) was 12.97 mmol/L. The “Glycaemia, Time 60 mn” value ([4]; Table 9, compound 2 200 mg/kg) was 13.15 mmol/L, the “Glycaemia, Time 90 mn” value ([4]; Table 9, compound 2 200 mg/kg) was 11.37 mmol/L and the “Glycaemia, Time 120 mn” value ([4]; Table 9, compound 2 200 mg/kg) was 10.13 mmol/L. The “Insulin, Time −60 mn” value ([4]; Table 10, compound 2 200 mg/kg, circulating insulin) was 0.47 ng/mL, the “Insulin, Time 0 mn” value ([4]; Table 10, compound 2 200 mg/kg) was 0.41 ng/mL and the “Insulin, Time 30 mn” value ([4]; Table 10, compound 2 200 mg/kg) was 0.70 ng/mL. For the same compound, the “Insulin, Time 60 mn” value ([4]; Table 10, compound 2 200 mg/kg) was 0.59 ng/mL, the “Insulin, Time 90 mn” value ([4]; Table 10, compound 2 200 mg/kg) was 0.54 ng/mL and the “Insulin, Time 120 mn” value ([4]; Table 10, compound 2 200 mg/kg) was 0.53 ng/mL. For the same compound, the “Glycaemia AUC” value [4, 12] was 1048, the “Glycaemia, Time 0 mn” value [4, 12] was 5.23 mmol/L and the “Glycaemia, Time 30 mn” value [4, 12] was 11.15 mmol/L. For the same compound, the “Glycaemia, Time 60 mn” value [4, 12] was 16.21 mmol/L, the “Glycaemia, Time 90 mn” value [4, 12] was 14.36 mmol/L and the “Glycaemia, Time 120 mn” value [4, 12] was 15.33 mmol/L. For the same compound, the “Glycaemia, Time −60 mn” value [4, 12] was 5.12 mmol/L, the “Insulin, Time 0 mn” value [4, 13] was 1.41 ng/mL and the “Insulin, Time 30 mn” value [4, 13] was 1.76 ng/mL. For the same compound, the “Insulin, Time 60 mn” value [4, 13] was 1.48 ng/mL, the “Insulin, Time 90 mn” value [4, 13] was 1.61 ng/mL and the “Insulin, Time 120 mn” value [4, 13] was 1.61 ng/mL. For the same compound, the “Insulin, Time −60 mn” value [4, 13] was 1.11 ng/mL.

With `COc1cccc(N2CCN(CCOc3ccc(C(=O)CCC(=O)O)cc3)CC2)c1` [Compound 3] the “Glycaemia, Time −60 mn” value [1, 14] was 4.4 ± 0.3 mM/liter, the “Glycaemia, Time 0 mn” value [1, 14] was 5.5 ± 0.3 mM/liter and the “Glycaemia, Time 30 mn” value [1, 14] was 11.3 ± 0.6 mM/liter. For the same compound, the “Glycaemia, Time 60 mn” value [1, 14] was 9.7 ± 0.4 mM/liter, the “Glycaemia, Time 90 mn” value [1, 14] was 7.4 ± 0.3 mM/liter and the “Glycaemia, Time 120 mn” value [1, 14] was 7.2 ± 0.5 mM/liter. For the same compound, the “drop of glycaemia area under curve” value ([1]; study 3, compound 3 50 mg/kg per os) was 54.9%.

With `COc1ccccc1N1CCN(CCOc2ccc(CCCCC(=O)O)cc2)CC1` [Compound 4] the “Glycaemia, Time −60 mn” value [1, 15] was 3.4 ± 0.2 mM/liter, the “Glycaemia, Time 0 mn” value [1, 15] was 4.0 ± 0.3 mM/liter and the “Glycaemia, Time 30 mn” value [1, 15] was 18.6 ± 3.2 mM/liter. For the same compound, the “Glycaemia, Time 60 mn” value [1, 15] was 13.3 ± 1.5 mM/liter, the “Glycaemia, Time 90 mn” value [1, 15] was 8.8 ± 1.0 mM/liter and the “Glycaemia, Time 120 mn” value [1, 15] was 6.8 ± 1.0 mM/liter. The “drop of glycaemia area under curve” value ([1]; study 4, compound 4 50 mg/kg per os) was 18.7%.
